From patent US9150627B2, “Anti tumoral immunogenic peptides and vaccine thereof” (priority 2004, dated 2015) come the findings set out here.

Where no end group is shown, it is not given here.

For the data set, the system named is DHD-K12 cells. To be noted: rat, in vivo. An excerpt: Autologous colon carcinoma DHD-K12 line cells were inoculated intra-splenically in BDIX rats. These cells metastatize at polmonar and hepatic level and naturally express the epitope common also to human colon rectal carcinoma ([…] (SEQ ID NO:4)). To evaluate the relevance of […] (SEQ ID NO:4) antigen in antigen specific cytotoxic response BDIX rats were immunized with DHD-K12.
PBMC cytotoxic activity (cytotoxicity test based on the release of ^51Cr or LDH) of BDIX rats against DHD-K12 cells was evaluated after immunization and tumor inoculum.

For the sequence RTQKEASIC, the “PBMC cytotoxic activity after tumor inoculum, pre-immunized vs non immunized rats” value is recorded as “significantly increased” and the “PBMC cytotoxic activity against DHD-K12 after immunization” value is given as “high cytotoxic activity”.
